Laboratory results: US8153787B2 (priority 2005, dated 2012)
Values after ≈ are worked out from the molar mass of the structure shown. Like-named read-outs stand apart in the source and are kept apart here.

Experiments:
Vaccinia virus [1] = assay: microbe, parasite or virus in culture; assay type: cell-based; conditions: Orthopoxvirus vaccinia, read-out: EC50 vaccinia virus
in vitro [2] = conditions: human
[3] = system: herpes simplex virus type 1 (HSV-1); assay: microbe, parasite or virus in culture; assay type: cell-based; conditions: Human alphaherpesvirus 1, HEL, read-out: EC50 HSV-1 (Kos strain)
[4] = system: herpes simplex virus type 2 (HSV-2); assay: microbe, parasite or virus in culture; assay type: cell-based; conditions: Human alphaherpesvirus 2, HEL, read-out: EC50 HSV-2 (G strain)
[5] = system: Varicella-Zoster Virus (VZV); assay: microbe, parasite or virus in culture; assay type: cell-based; conditions: Human alphaherpesvirus 3, HEL
[6] = system: Human Cytomegalovirus (HCMV); assay: microbe, parasite or virus in culture; assay type: cell-based
Vaccinia virus [7] = assay: organism not typed; assay type: cell-based; conditions: HEL
Cowpox virus (Brighton) = assay: microbe, parasite or virus in culture; assay type: cell-based; conditions: Cowpox virus, HEL, read-out: EC50 Cowpox virus Brighton
Orf virus (NZ2) = assay: microbe, parasite or virus in culture; assay type: cell-based; conditions: Orf virus, HEL, read-out: EC50 Orf virus NZ2
[8] = system: primate polyomavirus (SV40); assay: microbe, parasite or virus in culture; assay type: cell-based, simian polyomavirus SV40; conditions: for EC50: Polyomavirus sp., BSC-1, in Primates
murine polyomavirus = assay: microbe, parasite or virus in culture; assay type: cell-based; conditions: for EC50: Alphapolyomavirus muris, UC1, UC1B
HEL cells = conditions: HEL cells, microscopy
HSB-2 cells = conditions: human
MOLT-3 cells = conditions: human
in vitro [9] = conditions: human; remark: listed apart in the source
in vitro [10] = conditions: African green monkey
in vitro [11] = conditions: mouse
in vitro [12] = conditions: human; remark: listed apart in the source
[13] = read-out: antiviral activity (EC50) SV40 PML-1 strain EK
[14] = read-out: antiviral activity (EC50) SV40 PML-2 strain DAR
[15] = read-out: antiviral activity (EC50) SV40 strain A2895
[16] = read-out: antiviral activity (EC50) 2PTA2
[17] = read-out: antiviral activity (EC50) MN/RDE Toronto

NC1=NC(=O)N(C[C@@H](CO)OCP(=O)(O)O)CN1 [5,6-dihydro derivative of HPMP-5-azaC, (S)-1-[3-Hydroxy-2-(phosphonomethoxy)propyl]-5,6-dihydro-5-azacytosine]
EC50 (Vaccinia virus [1]): 38 µg/mL (≈ 135 µM)
CC50 (in vitro [2]): 120 µg/mL (≈ 425 µM)

Nc1nc2c(ncn2COCCO)c(=O)[nH]1 [Acyclovir, reference compound]
EC50 [3]: 0.032 µg/mL (≈ 0.142 µM)
EC50 [4]: 0.032 µg/mL (≈ 0.142 µM)

NC(=NC(=O)NC[C@@H](CO)OCP(=O)(O)O)NC=O.[Na] [Compound 3a, Sodium 3-formyl-2-{[(2S)-3-hydroxy-2-(phosphono-methoxy)propyl]carbamoyl}guanidine]
EC50 ([5]; read-out: EC50 VZV 07/1 strain (HEL cells)): 0.046 µg/mL
EC50 ([5]; read-out: EC50 VZV OKA strain (HEL cells)): 0.042 µg/mL
EC50 ([6]; Human betaherpesvirus 5, AD169, HEL, read-out: EC50 HCMV AD-169 strain (HEL cells)): 0.1 µg/mL
EC50 ([6]; Human betaherpesvirus 5, HEL, read-out: EC50 HCMV Davis strain (HEL cells)): 0.12 µg/mL
EC50 (Vaccinia virus [7]; read-out: EC50 Vaccinia Virus Lister): 7.61 µg/mL
EC50 (Vaccinia virus [7]; Orthopoxvirus vaccinia, read-out: EC50 Vaccinia Virus Copenhagen): 5.84 µg/mL
EC50 (Vaccinia virus [7]; Orthopoxvirus vaccinia, read-out: EC50 Vaccinia Virus Lederle): 7.97 µg/mL
EC50 (Vaccinia virus [7]; Orthopoxvirus vaccinia, read-out: EC50 Vaccinia Virus WR): 6.34 µg/mL
EC50 (Cowpox virus (Brighton)): 12.6 µg/mL
EC50 (Orf virus (NZ2)): 0.37 µg/mL
selectivity index SV40 PML-1 strain EK [8]: >20
selectivity index SV40 PML-2 strain DAR [8]: >24
selectivity index SV40 strain A2895 [8]: >34
EC50 [8, 13]: 10 µg/mL
EC50 [8, 14]: 8.24 µg/mL
EC50 [8, 15]: 5.92 µg/mL
selectivity index 2PTA2 (murine polyomavirus): >13
selectivity index MN/RDE Toronto (murine polyomavirus): >26
EC50 (murine polyomavirus; [16]): 14.8 µg/mL
EC50 (murine polyomavirus; [17]): 7.57 µg/mL
Toxicity MCC (microscop) (HEL cells): >100 µg/mL
Toxicity MCC (microscopy), HSB-2 cells (HSB-2 cells): >200 µg/mL
Toxicity MCC (microscopy), MOLT-3 cells (MOLT-3 cells): 200 µg/mL
CC50 at 3 days (in vitro [9]): > 50 µg/mL
CC50 (in vitro [10]): > 200 µg/mL
CC50 (in vitro [11]): > 200 µg/mL
CC50 (in vitro [12]): > 100 µg/mL

NC(N)=NC(=O)NC[C@@H](CO)OCP(=O)(O)O [Compound 10, 2-{[(2S)-3-Hydroxy-2-(Phosphonomethoxy)propyl]carbamoyl}guanidine]
selectivity index SV40 PML-1 strain EK [8]: 1
selectivity index SV40 PML-2 strain DAR [8]: 1
selectivity index SV40 strain A2895 [8]: 1
EC50 [8, 13]: > 200 µg/mL
EC50 [8, 14]: > 200 µg/mL
EC50 [8, 15]: > 200 µg/mL
selectivity index 2PTA2 (murine polyomavirus): 1
selectivity index LID-1 (murine polyomavirus): 1
selectivity index MN/RDE Toronto (murine polyomavirus): 1
selectivity index PTA (murine polyomavirus): 1
EC50 (murine polyomavirus; [16]): > 200 µg/mL
EC50 (murine polyomavirus; read-out: antiviral activity (EC50) LID-1): > 200 µg/mL
EC50 (murine polyomavirus; [17]): > 200 µg/mL
EC50 (murine polyomavirus; read-out: antiviral activity (EC50) PTA): > 200 µg/mL
Toxicity MCC (microscopy), HSB-2 cells (HSB-2 cells): >200 µg/mL
CC50 (in vitro [10]): > 200 µg/mL
CC50 (in vitro [11]): > 200 µg/mL
